Assay results: PubChem BioAssay (NCI)
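Test compounds were applied to cells in 96-well plates for 48 hours at 5 doses. GI50 marks 50% less growth. The concentration for full growth arrest is given as TGI.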

Key:
Assay in all cases: NCI tumour cell line growth inhibition, 48 h
HOP-18 NSCLC = tested on: HOP-18 NSCLC
M19-MEL melanoma = tested on: M19-MEL melanoma
XF 498 CNS = tested on: XF 498 CNS
DMS 273 small cell lung = tested on: DMS 273 small cell lung
DLD-1 colon = tested on: DLD-1 colon
SNB-78 CNS = tested on: SNB-78 CNS
T-47D breast = tested on: T-47D breast
MDA-N = tested on: MDA-N

| Compound | TGI (HOP-18 NSCLC) [µM] | TGI (M19-MEL melanoma) [µM] | TGI (XF 498 CNS) [µM] | TGI (DMS 273 small cell lung) [µM] | TGI (DLD-1 colon) [µM] | TGI (SNB-78 CNS) [µM] | GI50 (T-47D breast) [µM] | TGI (T-47D breast) [µM] | further results |
| --- | --- | --- | --- | --- | --- | --- | --- | --- | --- |
| COc1ccc2c(c1)CN1CCc3c(cc(OC)c(OC)c3OC)C1C2 (configuration not stated) | > 100 | > 100 | > 100 | > 100 | > 100 | > 100 |  |  |  |
| O=c1c2cc3ccccc3n2c(=O)c2cc3ccccc3n12 | > 100 | > 100 | > 100 | > 100 | > 100 | > 100 |  |  |  |
| O=C1NC(c2ccccc2)C2(C(=O)O)CN(C3CC3)c3cc(N4CCNCC4)c(F)cc3C2N1 (configuration not stated) |  |  |  |  |  |  | > 100 | > 100 |  |
| Cc1cccc2c1[nH]c(=O)c1c3ccccc3cn21 |  |  |  |  |  |  | 11.5 | 48.5 |  |
| CN(C)CCCNc1nc2ccccc2c2[nH]c3ccccc3c12 |  |  |  |  |  |  | 5.18 | 16.5 |  |
| O=C([O-])CC(=O)[O-].[NH-][C@@H]1CCCC[C@H]1[NH-].[Pt+4] |  | > 100 |  |  |  | > 100 | 8.38 | > 100 | GI50 (MDA-N): 19.9 µM; TGI (MDA-N): > 100 µM; GI50 (M19-MEL melanoma): 14.3 µM; GI50 (SNB-78 CNS): > 100 µM |
| CC[PH+](CC)CC.[Cl][Au] | 3 | 6.56 | 2.67 | 22.1 | 2.93 | 5.93 |  |  | GI50 (HOP-18 NSCLC): 1.64 µM; GI50 (M19-MEL melanoma): 1.08 µM; GI50 (XF 498 CNS): 1.37 µM; GI50 (DMS 273 small cell lung): 4.77 µM; GI50 (DLD-1 colon): 1.28 µM; GI50 (SNB-78 CNS): 1.65 µM |
| COc1ccc(S(=O)(=O)N(C(C)=O)c2ccccc2/C=C/c2cc[n+]([O-])cc2)cc1 |  |  |  |  |  |  | 3.84 | > 10 |  |
| C=C1CCC2C3(C)COC(c4ccccc4Cl)OC3CCC2(C)C1/C=C/C1=CCOC1=O (configuration not stated) |  |  |  |  |  |  | 3.39 | > 100 |  |
